# Measured values as given in patent US9567342B2, “Certain protein kinase inhibitors” (SHANGHAI FOCHON PHARMACEUTICAL CO., LTD., priority 2012, dated 2017).
# Test system: SU-DHL-1 cells
# Test: Inhibition activity of cell proliferation (CCK-8 assay)
# Format: cell-based
# Conditions: Homo sapiens, 72 h exposure
# Procedure: SU-DHL-1 cells were seeded in 96-well tissue culture plates. On the next day, cells were exposed to various concentrations of compounds and further cultured for 72 h. Cell proliferation was then determined using Cell Counting Kit-8 [(CCK-8), Dojindo]assay. Briefly, add 10 μL of the CCK-8 solution to each well of the plate. Incubate the plate for 1-4 hours in the incubator. Measure the absorbance at 450 nm using a multi-well spectrophotometer (SpectraMAX 190, Molecular Devices). The inhibition rate (%) was calculated using the following equation: [1−(A450 Compound/A450 Control)]×100%. IC50 values were calculated according to inhibition curve by four-parameter fit.
row,SMILES,IC50
1,Cc1cc(Nc2ncc(Cl)c(Nc3ccccc3S(=O)(=O)C(C)C)n2)c2c(c1C1CCN(CCS(C)(=O)=O)CC1)C[C@H](C)O2 [Example 29],64.7 nM
2,"Cc1cc(Nc2ncc(Cl)c(Nc3ccccc3S(=O)(=O)C(C)C)n2)c2c(c1C1CCN(CC(=O)O)CC1)C[C@@H](C)O2 [Example 20, (R)-2-(4-(7-((5-chloro-4-((2-(isopropylsulfonyl)phenyl)amino)pyrimidin-2-yl)amino)-2,5-dimethyl-2,3-dihydrobenzofuran-4-yl)piperidin-1-yl)acetic acid]",61.9 nM
3,Cc1cc(Nc2nc(Nc3ccccc3S(=O)(=O)C(C)C)c3c(C)n[nH]c3n2)c2c(c1C1CCNCC1)CCO2 [Example 1],25.5 nM
4,Cc1cc(Nc2nc(Nc3ccccc3S(=O)(=O)C(C)C)c3c(C)n[nH]c3n2)c2c(c1C1CCNCC1)C[C@H](C)O2 [Example 5],12.1 nM
5,"COCCN1CCC(c2c(C)cc(Nc3ncc(Cl)c(Nc4ccccc4S(=O)(=O)C(C)C)n3)c3c2C[C@H](C)O3)CC1 [Example 31, (S)-5-chloro-N-4-(2-(isopropylsulfonyl)phenyl)-N-2-(4-(1-(2-methoxyethyl)piperidin-4-yl)-2,5-dimethyl-2,3-dihydrobenzofuran-7-yl)pyrimidine-2,4-diamine]",74.5 nM
6,"Cc1cc(Nc2ncc(Cl)c(Nc3ccccc3S(=O)(=O)C(C)C)n2)c2c(c1C(=O)N1CCNCC1)C[C@H](C)O2 [Example 46, (S)-(7-((5-chloro-4-((2-(isopropylsulfonyl)phenyl)amino)pyrimidin-2-yl)amino)-2,5-dimethyl-2,3-dihydrobenzofuran-4-yl)(piperazin-1-yl)methanone]",114 nM
7,"Cc1cc(Nc2ncc(Cl)c(Nc3ccccc3S(=O)(=O)C(C)C)n2)c2c(c1C1CCN(S(C)(=O)=O)CC1)C[C@H](C)O2 [Example 17, (S)-5-chloro-N-2-(2,5-dimethyl-4-(1-(methylsulfonyl)piperidin-4-yl)-2,3-dihydrobenzofuran-7-yl)-N-4-(2-(isopropylsulfonyl)phenyl)pyrimidine-2,4-diamine]",68.5 nM
8,"Cc1cc(Nc2ncc(Cl)c(Nc3ccccc3S(=O)(=O)C(C)C)n2)c2c(c1C1CCN(S(=O)(=O)C3CC3)CC1)C[C@@H](C)O2 [Example 54, (R)-5-chloro-N-2-(4-(1-(cyclopropylsulfonyl)piperidin-4-yl)-2,5-dimethyl-2,3-dihdyrobenzofuran-7-yl)-N-4-(2-(isopropylsulfonyl)phenyl)pyrimidine-2,4-diamine]",333 nM
9,"Cc1cc(Nc2ncc(Cl)c(Nc3ccccc3S(=O)(=O)C(C)C)n2)c2c(c1C1CCN(CCO)CC1)C[C@H](C)O2 [Example 34, (S)-2-(4-(7-((5-chloro-4-((2-(isopropylsulfonyl)phenyl)amino)pyrimidin-2-yl)amino)-2,5-dimethyl-2,3-dihydrobenzofuran-4-yl)piperidin-1-yl)ethanol]",12.3 nM
10,"Cc1cc(Nc2ncc(Cl)c(Nc3ccccc3S(=O)(=O)C(C)C)n2)c2c(c1C1CCN(CC(=O)N(C)C)CC1)C[C@@H](C)O2 [Example 28, (R)-2-(4-(7-((5-chloro-4-((2-(isopropylsulfonyl)phenyl)amino)pyrimidin-2-yl)amino)-2,5-dimethyl-2,3-dihydrobenzofuran-4-yl)piperidin-1-yl)-N,N-dimethylacetamide]",46.6 nM
11,"CCOC(=O)CN1CCC(c2c(C)cc(Nc3ncc(Cl)c(Nc4ccccc4S(=O)(=O)C(C)C)n3)c3c2C[C@H](C)O3)CC1 [Example 41, (S)-ethyl 2-(4-(7-((5-chloro-4-((2-(isopropylsulfonyl)phenyl)amino)pyrimidin-2-yl)amino)-2,5-dimethyl-2,3-dihydrobenzofuran-4-yl)piperidin-1-yl)acetate]",43.2 nM
12,Cc1cc(Nc2ncc(Cl)c(Nc3ccccc3S(=O)(=O)C(C)C)n2)c2c(c1C1CCN(CCS(C)(=O)=O)CC1)C[C@@H](C)O2 [Example 30],17.4 nM
13,"Cc1cc(Nc2ncc(Cl)c(Nc3ccccc3S(=O)(=O)C(C)C)n2)c2c(c1C1CCNCC1)C[C@H](C)O2 [Example 11, (S)-5-chloro-N-2-(2,5-dimethyl-4-(piperidin-4-yl)-2,3-dihydrobenzofuran-7-yl)-N-4-(2-(isopropylsulfonyl)phenyl)pyrimidine-2,4-diamine]",< 4.1 nM
14,"Cc1cc(Nc2nc(Nc3ccccc3S(=O)(=O)C(C)C)c3c(C)n[nH]c3n2)c2c(c1C1CCN(C)CC1)CCO2 [Example 2, N-4-(2-(isopropylsulfonyl)phenyl)-3-methyl-N-6-(5-methyl-4-(1-methylpiperidin-4-yl)-2,3-dihydrobenzofuran-7-yl)-1H-pyrazolo[3,4-d]pyrimidine-4,6-diamine]",18.9 nM
15,"Cc1cc(Nc2ncc(Cl)c(Nc3ccccc3S(=O)(=O)C(C)C)n2)c2c(c1C(=O)N1CCN(C)CC1)C[C@H](C)O2 [Example 47, (S)-(7-((5-chloro-4-((2-(isopropylsulfonyl)phenyl)amino)pyrimidin-2-yl)amino)-2,5-dimethyl-2,3-dihydrobenzofuran-4-yl)(4-methylpiperazin-1-yl)methanone]",117 nM

# Second part, the molecule after the results:
row,IC50,SMILES
1,264 nM,"CNCC(=O)N1CCC(c2c(C)cc(Nc3ncc(Cl)c(Nc4ccccc4S(=O)(=O)C(C)C)n3)c3c2C[C@H](C)O3)CC1 [Example 44, (S)-1-(4-(7-((5-chloro-4-((2-(isopropylsulfonyl)phenyl)amino)pyrimidin-2-yl)amino)-2,5-dimethyl-2,3-dihydrobenzofuran-4-yl)piperidin-1-yl)-2-(methylamino)ethanone]"
2,35.7 nM,"CO[C@H](C)C(=O)N1CCC(c2c(C)cc(Nc3ncc(Cl)c(Nc4ccccc4S(=O)(=O)C(C)C)n3)c3c2C[C@H](C)O3)CC1 [Example 55, (R)-1-(4-((S)-7-((5-chloro-4-((2-(isopropylsulfonyl)phenyl)amino)pyrimidin-2-yl)amino)-2,5-dimethyl-2,3-dihydrobenzofuran-4-yl)piperidin-1-yl)-2-methoxypropan-1-one]"
3,< 0.2 nM,"Cc1cc(Nc2ncc(Cl)c(Nc3ccccc3S(=O)(=O)C(C)C)n2)c2c(c1C1CCN(C)CC1)C[C@@H](C)O2 [Example 10, (R)-5-chloro-N-2-(2,5-dimethyl-4-(1-methylpiperidin-4-yl)-2,3-dihydrobenzofuran-7-yl)-N-4-(2-(isopropylsulfonyl)phenyl)pyrimidine-2,4-diamine]"
4,38.2 nM,"CC(=O)N1CCC(c2c(C)cc(Nc3ncc(Cl)c(Nc4ccccc4S(=O)(=O)C(C)C)n3)c3c2C[C@H](C)O3)CC1 [Example 15, (S)-1-(4-(7-((5-chloro-4-((2-(isopropylsulfonyl)phenyl)amino)pyrimidin-2-yl)amino)-2,5-dimethyl-2,3-dihydrobenzofuran-4-yl)piperidin-1-yl)ethanone]"
5,36.9 nM,"Cc1cc(Nc2ncc(Cl)c(Nc3ccccc3S(=O)(=O)C(C)C)n2)c2c(c1C1CCN(C[C@@H](C)O)CC1)C[C@H](C)O2 [Example 35, (R)-1-(4-((S)-7-((5-chloro-4-((2-(isopropylsulfonyl)phenyl)amino)pyrimidin-2-yl)amino)-2,5-dimethyl-2,3-dihydrobenzofuran-4-yl)piperidin-1-yl)propan-2-ol]"
6,8.3 nM,"Cc1cc(Nc2ncc(Cl)c(Nc3ccccc3S(=O)(=O)C(C)C)n2)c2c(c1C1CCN(C[C@H](C)O)CC1)C[C@@H](C)O2 [Example 24, (S)-1-(4-((R)-7-((5-chloro-4-((2-(isopropylsulfonyl)phenyl)amino)pyrimidin-2-yl)amino)-2,5-dimethyl-2,3-dihydrobenzofuran-4-yl)piperidin-1-yl)propan-2-ol]"
7,13.7 nM,"Cc1cc(Nc2ncc(Cl)c(Nc3ccccc3S(=O)(=O)C(C)C)n2)c2c(c1C1CCN(CC(N)=O)CC1)C[C@@H](C)O2 [Example 26, (R)-2-(4-(7-((5-chloro-4-((2-(isopropylsulfonyl)phenyl)amino)pyrimidin-2-yl)amino)-2,5-dimethyl-2,3-dihydrobenzofuran-4-yl)piperidin-1-yl)acetamide]"
8,26.2 nM,"Cc1cc(Nc2ncc(Cl)c(Nc3ccccc3S(=O)(=O)C(C)C)n2)c2c(c1C1CCN(C[C@H](C)O)CC1)C[C@H](C)O2 [Example 36, (S)-1-(4-((S)-7-((5-chloro-4-((2-(isopropylsulfonyl)phenyl)amino)pyrimidin-2-yl)amino)-2,5-dimethyl-2,3-dihydrobenzofuran-4-yl)piperidin-1-yl)propan-2-ol]"
9,86 nM,"Cc1cc(Nc2ncc(Cl)c(Nc3ccccc3S(=O)(=O)C(C)C)n2)c2c(c1C1CCN(C(=O)[C@H](C)N)CC1)C[C@@H](C)O2 [Example 22, (S)-2-amino-1-(4-((R)-7-((5-chloro-4-((2-(isopropylsulfonyl)phenyl)amino)pyrimidin-2-yl)amino)-2,5-dimethyl-2,3-dihydrobenzofuran-4-yl)piperidin-1-yl)propan-1-one]"
10,4 nM,Cc1cc(Nc2ncc(Cl)c(Nc3ccccc3S(=O)(=O)C(C)C)n2)c2c(c1C1CCN(C)CC1)C[C@H](C)O2 [Example 12]
11,68.6 nM,"Cc1cc(Nc2ncc(Cl)c(Nc3ccccc3S(=O)(=O)C(C)C)n2)c2c(c1C1CCN(C(=O)[C@H](C)N)CC1)C[C@H](C)O2 [Example 21, (S)-2-amino-1-(4-((S)-7-((5-chloro-4-((2-(isopropylsulfonyl)phenyl)amino)pyrimidin-2-yl)amino)-2,5-dimethyl-2,3-dihydrobenzofuran-4-yl)piperidin-1-yl)propan-1-one]"
12,10.3 nM,"Cc1cc(Nc2ncc(Cl)c(Nc3ccccc3S(=O)(=O)C(C)C)n2)c2c(c1C1CCN(C(=O)[C@@H](C)O)CC1)C[C@@H](C)O2 [Example 39, (R)-1-(4-((R)-7-((5-chloro-4-((2-(isopropylsulfonyl)phenyl)amino)pyrimidin-2-yl)amino)-2,5-dimethyl-2,3-dihydrobenzofuran-4-yl)piperidin-1-yl)-2-hydroxypropan-1-one]"
